Assay: xn = mol fraction of the nth substance listed
Settings: 101.3 kPa, Liquid, Falling or rolling sphere viscometry

CCn1cc[n+](C)c1.O=S(=O)([N-]S(=O)(=O)C(F)(F)F)C(F)(F)F + O
viscosity [mPa·s]
Settings	x2 = 0	x2 = 0.1074	x2 = 0.2228	x2 = 0.3027
303.15 K	28.6	23.8	19.4	16.4
323.15 K	15.9	13.6	11.4	9.9

Reference: the NIST ThermoML archive (doi:10.1016/j.fluid.2010.02.021)
